Assay results taken from patent US20210122739A1, “NOVEL SULFONAMIDE CARBOXAMIDE COMPOUNDS” (Inflazome Limited, priority 2017, published 2021).

How the values were obtained:
[1] = target: T1, NLRP3 (Homo sapiens, UniProt Q96P20); assay: Human whole blood IL1β release assay; type: cell-based; parameters: Plate out 80 μl of whole blood containing 1 μg/ml of LPS; from tissue; host or cells: human whole blood from healthy donors, LPS-primed, nigericin-stimulated; conditions: 1 μg/ml LPS, nigericin 10 μM, IL-1β by AlphaLisa, read-out: HWB IC50
T1 sequence (Q96P20 whole entry): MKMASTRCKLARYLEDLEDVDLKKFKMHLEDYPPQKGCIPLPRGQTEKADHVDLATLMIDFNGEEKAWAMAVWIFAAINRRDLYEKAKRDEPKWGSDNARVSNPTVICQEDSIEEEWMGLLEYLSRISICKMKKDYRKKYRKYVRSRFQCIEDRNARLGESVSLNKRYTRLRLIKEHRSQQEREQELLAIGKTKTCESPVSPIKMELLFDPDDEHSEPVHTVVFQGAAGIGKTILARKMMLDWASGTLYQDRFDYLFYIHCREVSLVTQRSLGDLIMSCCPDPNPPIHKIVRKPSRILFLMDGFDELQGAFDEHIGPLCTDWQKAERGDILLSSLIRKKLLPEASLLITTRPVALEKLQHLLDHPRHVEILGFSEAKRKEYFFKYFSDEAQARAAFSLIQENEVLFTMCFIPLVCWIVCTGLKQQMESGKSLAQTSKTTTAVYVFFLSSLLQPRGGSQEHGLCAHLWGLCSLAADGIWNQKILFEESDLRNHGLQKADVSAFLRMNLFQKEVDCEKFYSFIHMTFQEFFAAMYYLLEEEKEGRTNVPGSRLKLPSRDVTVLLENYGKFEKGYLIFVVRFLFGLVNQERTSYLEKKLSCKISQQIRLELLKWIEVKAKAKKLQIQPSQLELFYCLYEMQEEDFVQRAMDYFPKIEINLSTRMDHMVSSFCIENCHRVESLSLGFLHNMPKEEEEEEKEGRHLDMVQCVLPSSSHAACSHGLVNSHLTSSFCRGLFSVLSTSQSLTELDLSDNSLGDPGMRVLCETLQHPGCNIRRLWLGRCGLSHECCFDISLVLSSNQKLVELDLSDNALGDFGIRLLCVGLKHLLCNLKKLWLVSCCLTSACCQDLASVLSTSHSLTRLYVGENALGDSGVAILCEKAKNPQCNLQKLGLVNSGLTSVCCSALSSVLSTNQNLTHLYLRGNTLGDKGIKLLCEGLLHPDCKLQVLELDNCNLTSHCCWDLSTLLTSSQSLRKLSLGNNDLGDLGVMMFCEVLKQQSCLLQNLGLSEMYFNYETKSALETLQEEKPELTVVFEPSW
Experimental: For systemic delivery, the ability to inhibit NLRP3 when the compounds are present within the bloodstream is of great importance. For this reason, the NLRP3 inhibitory activity of a number of compounds in human whole blood was investigated in accordance with the following protocol.
Human whole blood in Li-heparin tubes was obtained from healthy donors from a volunteer donor panel. • 1. Plate out 80 μl of whole blood containing 1 μg/ml of LPS in 96-well, clear bottom cell culture plate (Corning #3585) • 2. Add 10 μl compound (8 points half-log dilution with 10 μM top dose) or vehicle (DMSO 0.1% FAC) to the appropriate wells • 3. Incubate for 3 hrs at 37° C., 5% CO2 • 4. Add 10 μl Nigericin (Sigma #N7143) (10 μM FAC) to all wells • 5. Incubate for 1 hr at 37° C., 5% CO2 • 6. At the end of the incubation period, spin plates at 300×g for 5 mins to pellet cells and remove 20 μl of supernatant and add to 96-well v-bottom plates for IL-1β analysis (note: these plates containing the supernatants can be stored at −80° C. to be analysed at a later date) • 7. IL-1β was measured according to the manufacturer protocol (Perkin Elmer-AlphaLisa IL-1 Kit AL220F-5000) • 8. IC50 data is fitted to anon-linear regression equation (log inhibitor vs response-variable slope 4-parameters)

[2] = target: T1, NLRP3; assay: THP-1 cells pyroptosis assay; type: cell-based; parameters: Seed THP-1 cells (25,000 cells/well) containing 1.0 μg/ml LPS; host or cells: THP-1 cells, LPS-primed, nigericin-stimulated; conditions: 1.0 μg/ml LPS, nigericin 5 μM, resazurin readout
From the text: It is well established that the activation of NLRP3 leads to cell pyroptosis and this feature plays an important part in the manifestation of clinical disease (Yan-gang Liu et al., Cell Death & Disease, 2017, 8(2), e2579; Alexander Wree et al., Hepatology, 2014, 59(3), 898-910; Alex Baldwin et al., Journal of Medicinal Chemistry, 2016, 59(5), 1691-1710; Ema Ozaki et al., Journal of Inflammation Research, 2015, 8, 15-27; Zhen Xie & Gang Zhao, Neuroimmunology Neuroinflammation, 2014, 1(2), 60-65; Mattia Cocco et al., Journal of Medicinal Chemistry, 2014, 57(24), 10366-10382; T. Satoh et al., Cell Death & Disease, 2013, 4, e644). Therefore, it is anticipated that inhibitors of NLRP3 will block pyroptosis, as well as the release of pro-inflammatory cytokines (e.g. IL-1β) from the cell.
THP-1 cells (ATCC #TIB-202) were grown in RPMI containing L-glutamine (Gibco #11835) supplemented with 1 mM sodium pyruvate (Sigma #S8636) and penicillin (100 units/ml)/streptomycin (0.1 mg/ml) (Sigma #P4333) in 10% Fetal Bovine Serum (FBS) (Sigma #F0804). The cells were routinely passaged and grown to confluency (˜10^6 cells/ml). On the day of the experiment, THP-1 cells were harvested and resuspended into RPMI medium (without FBS). The cells were then counted and viability (>90%) checked by Trypan blue (Sigma #T8154). Appropriate dilutions were made to give a concentration of 625,000 cells/ml. To this diluted cell solution was added LPS (Sigma #L4524) to give a 1 μg/ml Final Assay Concentration (FAC). 40 μl of the final preparation was aliquoted into each well of a 96-well plate. The plate thus prepared was used for compound screening.
The following method step-by-step assay was followed for compound screening. • 1. Seed THP-1 cells (25,000 cells/well) containing 1.0 μg/ml LPS in 40 μl of RPMI medium (without FBS) in 96-well, black walled, clear bottom cell culture plates coated with poly-D-lysine (VWR #734-0317) • 2. Add […] compound (8 points half-log dilution, with 10 μM top dose) or vehicle (DMSO 0.1% FAC) to the appropriate wells • 3. Incubate for 3 hrs at 37° C. in 5% CO2 • 4. Add 5 μl nigericin (Sigma #N7143) (FAC 5 μM) to all wells • 5. Incubate for 1 hr at 37° C. and 5% CO2 • 6. At the end of the incubation period, spin plates at 300×g for 3 mins and remove supernatant • 7. Then add 50 μl of resazurin (Sigma #R7017) (FAC 100 μM resazurin in RPMI medium without FBS) and incubate plates for a further 1-2 hrs at 37° C. and 5% CO2 • 8. Plates were read in an Envision reader at Ex 560 nm and Em 590 nm • 9. IC50 data is fitted to a non-linear regression equation (log inhibitor vs response-variable slope 4-parameters)

| SMILES | IC50 [1] [nM] | IC50 [2] [nM] |
| --- | --- | --- |
| CC(C)c1cc(F)cc(-c2cnn(C)c2)c1NC(=O)NS(=O)(=O)c1cc(C(=O)N(C)C)n(C)n1 [Example 35, 3-(N-((4-Fluoro-2-isopropyl-6-(1-methyl-H-pyrazol-4-yl)phenyl)carbamoyl)sulfamoyl)-N,N,1-trimethyl-1H-pyrazole-5-carboxamide] | < 400 | 640 to 2560 |
| CNC(=O)c1cc(S(=O)(=O)NC(=O)Nc2c(C(C)C)cccc2C(C)C)nn1C [Example 55, 3-(N-((2,6-Diisopropylphenyl)carbamoyl)sulfamoyl)-N,1-dimethyl-1H-pyrazole-5-carboxamide] | 400 to 800 | 160 to 640 |
| CN(C)C(=O)Cn1ccc(S(=O)(=O)NC(=O)Nc2c3c(cc4c2CCC4)CCC3)n1 [Example 1, 2-(3-(N-((1,2,3,5,6,7-Hexahydro-s-indacen-4-yl)carbamoyl)sulfamoyl)-1H-pyrazol-1-yl)-N,N-dimethylacetamide] | 3200 to 10000 | 160 to 640 |
| CN(C)CCN(C)C(=O)c1cc(S(=O)(=O)NC(=O)Nc2c3c(cc4c2CCC4)CCC3)nn1C [Example 10, N-(2-(Dimethylamino)ethyl)-3-(N-((1,2,3,5,6,7-hexahydro-s-indacen-4-yl)carbamoyl)sulfamoyl)-N,1-dimethyl-1H-pyrazole-5-carboxamide] |  | 640 to 2560 |
| CN(C(=O)c1cc(S(=O)(=O)NC(=O)Nc2c3c(cc4c2CCC4)CCC3)nn1C)C1CCCC1 [Example 11, N-Cyclopentyl-3-(N-((1,2,3,5,6,7-hexahydro-s-indacen-4-yl)carbamoyl)sulfamoyl)-N,1-dimethyl-1H-pyrazole-5-carboxamide] |  | 640 to 2560 |
| CC(=O)NCCN(C)C(=O)c1cc(S(=O)(=O)NC(=O)Nc2c3c(cc4c2CCC4)CCC3)nn1C [Example 13, N-(2-Acetamidoethyl)-3-(N-((1,2,3,5,6,7-hexahydro-s-indacen-4-yl)carbamoyl)sulfamoyl)-N,1-dimethyl-1H-pyrazole-5-carboxamide] |  | 2560 to 10000 |
| CC(C)c1cc(F)cc(C2CCOCC2)c1NC(=O)NS(=O)(=O)c1cc(C(=O)N(C)C)n(C)n1 [Example 33, 3-(N-((4-Fluoro-2-isopropyl-6-(tetrahydro-2H-pyran-4-yl)phenyl)carbamoyl)sulfamoyl)-N,N,1-trimethyl-1H-pyrazole-5-carboxamide] | 400 to 800 |  |
| CC(C)NC(=O)c1cc(S(=O)(=O)NC(=O)Nc2c3c(cc4c2CCC4)CCC3)nn1C [Example 46, 3-(N-((1,2,3,5,6,7-Hexahydro-s-indacen-4-yl)carbamoyl)sulfamoyl)-N-isopropyl-1-methyl-1H-pyrazole-5-carboxamide] |  | 2560 to 10000 |
| CN(CCC#N)C(=O)c1cc(S(=O)(=O)NC(=O)Nc2c3c(cc4c2CCC4)CCC3)nn1C [Example 9, N-(2-Cyanoethyl)-3-(N-((1,2,3,5,6,7-hexahydro-s-indacen-4-yl)carbamoyl)sulfamoyl)-N,1-dimethyl-1H-pyrazole-5-carboxamide] |  | 160 to 640 |
| CN(C(=O)c1cc(S(=O)(=O)NC(=O)Nc2c3c(cc4c2CCC4)CCC3)nn1C)C1CCOCC1 [Example 14, 3-(N-((1,2,3,5,6,7-Hexahydro-s-indacen-4-yl)carbamoyl)sulfamoyl)-N,1-dimethyl-N-(tetrahydro-2H-pyran-4-yl)-1H-pyrazole-5-carboxamide] |  | 2560 to 10000 |
| Cn1nc(S(=O)(=O)NC(=O)Nc2c3c(cc4c2CCC4)CCC3)cc1C(=O)NCCO [Example 76, 3-(N-((1,2,3,5,6,7-Hexahydro-s-indacen-4-yl)carbamoyl)sulfamoyl)-N-(2-hydroxyethyl)-1-methyl-1H-pyrazole-5-carboxamide] |  | 2560 to 10000 |
| CC(C)c1cccc(C(C)C)c1NC(=O)NS(=O)(=O)c1cc(C(=O)N2CCOCC2)n(C)n1 [Example 21, N-((2,6-Diisopropylphenyl)carbamoyl)-1-methyl-5-(morpholine-4-carbonyl)-1H-pyrazole-3-sulfonamide] |  | 640 to 2560 |

Second part, the compound after the results:

| IC50 [1] [nM] | IC50 [2] [nM] | SMILES |
| --- | --- | --- |
| 400 to 800 | 40 to 160 | CC(=O)N(C)Cc1cc(S(=O)(=O)NC(=O)Nc2c3c(cc4c2CCC4)CCC3)nn1C(C)C [Example 29, N-((3-(N-((1,2,3,5,6,7-Hexahydro-s-indacen-4-yl)carbamoyl)sulfamoyl)-1-isopropyl-1H-pyrazol-5-yl)methyl)-N-methylacetamide] |
| < 400 | 160 to 640 | Cn1nc(S(=O)(=O)NC(=O)Nc2c3c(cc4c2CCC4)CCC3)cc1C(=O)N(CCO)CCO [Example 15, 3-(N-((1,2,3,5,6,7-Hexahydro-s-indacen-4-yl)carbamoyl)sulfamoyl)-N,N-bis(2-hydroxyethyl)-1-methyl-1H-pyrazole-5-carboxamide] |
| < 400 |  | CC(C)c1cc(F)cc(-c2cccnc2)c1NC(=O)NS(=O)(=O)c1cc(C(=O)N(C)C)n(C)n1 [Example 41, 3-(N-((4-Fluoro-2-isopropyl-6-(pyridin-3-yl)phenyl)carbamoyl)sulfamoyl)-N,N,1-trimethyl-1H-pyrazole-5-carboxamide] |
| 800 to 1600 | 160 to 640 | CN(CC#N)C(=O)c1cc(S(=O)(=O)NC(=O)Nc2c3c(cc4c2CCC4)CCC3)nn1C [Example 53, N-(Cyanomethyl)-3-(N-((1,2,3,5,6,7-hexahydro-s-indacen-4-yl)carbamoyl)sulfamoyl)-N,1-dimethyl-1H-pyrazole-5-carboxamide] |
| 800 to 1600 | 640 to 2560 | CC(C)c1cccc(C(C)C)c1NC(=O)NS(=O)(=O)c1cc(C(=O)N2CC(F)C2)n(C)n1 [Example 39, N-((2,6-Diisopropylphenyl)carbamoyl)-5-(3-fluoroazetidine-1-carbonyl)-1-methyl-1H-pyrazole-3-sulfonamide] |
| 3200 to 10000 | 160 to 640 | CN(C(=O)c1cc(S(=O)(=O)NC(=O)Nc2c3c(cc4c2CCC4)CCC3)nn1C)C1CCC1 [Example 7, N-Cyclobutyl-3-(N-((1,2,3,5,6,7-hexahydro-s-indacen-4-yl)carbamoyl)sulfamoyl)-N,1-dimethyl-1H-pyrazole-5-carboxamide] |
| 400 to 800 | 40 to 160 | CN(C(=O)c1cc(S(=O)(=O)NC(=O)Nc2c3c(cc4c2CCC4)CCC3)nn1C)C1CC1 [Example 52, N-Cyclopropyl-3-(N-((1,2,3,5,6,7-hexahydro-s-indacen-4-yl)carbamoyl)sulfamoyl)-N,1-dimethyl-1H-pyrazole-5-carboxamide] |
|  | 2560 to 10000 | COCCN(C)C(=O)c1cc(S(=O)(=O)NC(=O)Nc2c(C(C)C)cccc2C(C)C)nn1C [Example 22, 3-(N-((2,6-Diisopropylphenyl)carbamoyl)sulfamoyl)-N-(2-methoxyethyl)-N,1-dimethyl-1H-pyrazole-5-carboxamide] |
